ChEMBL document CHEMBL1201862, “PubChem BioAssay data set” (2004)
Activity calls are given as the source filed them.

Assays:
[1] = system: BJ; assay: BJ-TERT fibroblast viability loss – cell-based, RAS-independent, luminescence, dose response (AID 1933); assay type: functional; details: Homo sapiens
[2] = system: BJ; assay: cells; assay type: functional, cell-based; details: Homo sapiens
[3] = target: Luciferin 4-monooxygenase (Photinus pyralis, UniProt P08659); assay: inhibition of purified Photinus pyralis luciferase – biochemical, luminescence, dose response (AID 1891)
[4] = Luminescence Cell-Based Dose Confirmation HTS to Identify Inhibitors of Platelet Dense Granule Release. [Related pubchem assays: 1663 (Primary HTS), 1678 (Summary of Project)]; assay type: functional
[5] = system: BJ; assay: BJ-TERT-LT-ST fibroblast viability loss – cell-based, RAS-independent, luminescence, dose response (AID 1935); assay type: functional; details: Homo sapiens;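 note: BJ fibroblasts immortalized with TERT plus LT and ST oncogenes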
[6] = DRD fibroblast viability loss – cell-based, non-viral oncogenic, luminescence, dose response (AID 1934); assay type: functional; details: Homo sapiens
[7] = luciferase reporter signal suppression in cells – H4 neuroglioma cells, luminescence, dose response (AID 1990); assay type: functional, cell-based
[8] = Luminescence Cell-Based Dose Response HTS to Identify Inhibitors of 5'UTR Stem-Loop Driven Prion Protein mRNA Translation in H4 Neuroglioblastoma Cells. [Related pubchem assays: 1827 (Project Summary), 1813 (Primary HTS)]; assay type: functional
[9] = alpha-synuclein stem-loop luciferase translation blockers – H4 neuroglioma cells, luminescence, confirmation (AID 1988); assay type: functional, cell-based
[10] = target: Paired box protein Pax-8 (Homo sapiens, UniProt Q06710); assay: PAX8 transcriptional activity inhibition in RMG-I – RMG-I cells, luciferase, cherry-pick, dose response (AID 687027); assay type: functional, cell-based;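 note: luciferase reporter driven by Pax8 target thyroperoxidase promoter measured by SteadyGlo luminescence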
[11] = target: Voltage-dependent T-type calcium channel subunit alpha-1H (Homo sapiens, UniProt O95180); assay type: functional;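 note: channel activity triggered by adding a high calcium stimulation buffer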
[12] = target: Cytochrome P450 2D6 (Homo sapiens, UniProt P10635);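 note: CYP2D6 member of a cytochrome P450 panel assay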
[13] = Trypanosoma cruzi growth suppression in host cells – NIH3T3 host cells, beta-gal luminescence, confirmation (AID 2044); assay type: functional, cell-based;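 note: intracellular parasites grown in NIH/3T3 mouse fibroblasts as host cells; luminescent beta-galactosidase reporter signal from transgenic T. cruzi replicating inside host cells; inhibitors lower the luminescence signal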
[14] = NIH3T3 cell viability loss – ATP luminescence, mouse fibroblasts, counter-screen, dose response (AID 2010); assay type: functional, cell-based;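 note: cells exposed to compound for about 90 hours before reading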
[15] = target: T1, Aminopeptidase N (Plasmodium falciparum FcB1/Columbia, UniProt O96935); assay: malaria alanyl aminopeptidase activity blockers – biochemical, fluorogenic H-Leu-NHMec substrate, 1536-well (AID 1445); design: species or system Plasmodium falciparum 3D7, 3D7
T1 sequence (O96935 whole entry): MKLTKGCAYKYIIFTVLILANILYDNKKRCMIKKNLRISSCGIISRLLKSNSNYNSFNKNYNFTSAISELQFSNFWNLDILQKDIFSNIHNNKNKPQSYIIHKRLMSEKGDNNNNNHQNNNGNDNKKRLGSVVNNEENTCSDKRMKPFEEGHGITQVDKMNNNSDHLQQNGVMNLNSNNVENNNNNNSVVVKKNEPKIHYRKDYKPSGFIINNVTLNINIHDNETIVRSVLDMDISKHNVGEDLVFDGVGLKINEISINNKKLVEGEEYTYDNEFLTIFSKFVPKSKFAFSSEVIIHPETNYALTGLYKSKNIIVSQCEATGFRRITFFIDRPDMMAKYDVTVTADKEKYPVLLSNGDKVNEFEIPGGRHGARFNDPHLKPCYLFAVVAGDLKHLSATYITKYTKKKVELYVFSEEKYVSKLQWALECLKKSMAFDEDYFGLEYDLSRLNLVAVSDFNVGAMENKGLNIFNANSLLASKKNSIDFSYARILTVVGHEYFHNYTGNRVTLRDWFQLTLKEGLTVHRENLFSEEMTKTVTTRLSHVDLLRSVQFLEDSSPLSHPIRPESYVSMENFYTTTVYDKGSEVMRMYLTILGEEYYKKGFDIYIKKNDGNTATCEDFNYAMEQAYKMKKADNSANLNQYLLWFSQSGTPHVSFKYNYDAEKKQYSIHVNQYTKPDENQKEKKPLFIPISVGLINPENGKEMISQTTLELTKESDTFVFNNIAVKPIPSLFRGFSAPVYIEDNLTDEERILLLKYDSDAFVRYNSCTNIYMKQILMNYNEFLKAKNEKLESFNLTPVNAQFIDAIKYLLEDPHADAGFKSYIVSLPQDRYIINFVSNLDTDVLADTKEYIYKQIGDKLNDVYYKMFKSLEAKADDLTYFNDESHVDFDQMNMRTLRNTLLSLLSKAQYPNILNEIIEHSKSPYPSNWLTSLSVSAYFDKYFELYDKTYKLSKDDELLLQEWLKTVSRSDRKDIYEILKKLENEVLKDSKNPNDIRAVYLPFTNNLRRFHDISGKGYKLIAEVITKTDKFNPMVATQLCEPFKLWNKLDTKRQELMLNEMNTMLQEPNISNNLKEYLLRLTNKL

[16] = target: T2, Cytochrome P450 1A2 (Homo sapiens, UniProt P05177);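 note: PubChem cytochrome P450 panel assay, CYP1A2 panel member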
T2 sequence (P05177 whole entry): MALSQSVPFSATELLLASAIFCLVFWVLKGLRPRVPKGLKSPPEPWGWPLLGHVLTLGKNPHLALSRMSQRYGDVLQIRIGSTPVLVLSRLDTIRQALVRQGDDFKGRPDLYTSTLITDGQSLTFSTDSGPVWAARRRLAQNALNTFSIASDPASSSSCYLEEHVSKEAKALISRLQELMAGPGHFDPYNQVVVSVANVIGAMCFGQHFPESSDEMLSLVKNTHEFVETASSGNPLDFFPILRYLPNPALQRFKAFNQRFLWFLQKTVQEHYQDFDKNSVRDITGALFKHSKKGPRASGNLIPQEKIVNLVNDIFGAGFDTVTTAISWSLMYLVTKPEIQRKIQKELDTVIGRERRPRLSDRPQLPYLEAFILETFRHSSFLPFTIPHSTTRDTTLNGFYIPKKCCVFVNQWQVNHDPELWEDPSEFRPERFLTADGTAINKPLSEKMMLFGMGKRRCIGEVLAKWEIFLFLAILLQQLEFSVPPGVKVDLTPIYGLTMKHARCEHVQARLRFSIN

[17] = NIH-3T3 fibroblast cytotoxicity, dose response, cytotoxicity control, cell-based, fluorescence, Alamar Blue, secondary assay (AID 2327); assay type: functional;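 note: NIH-3T3 mouse fibroblasts cultured with fluconazole at 8 µg/mL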
[18] = fluconazole-exposed Candida albicans growth modulators – fluorescence, retest, confirmation (AID 2467); assay type: functional, cell-based
[19] = microbe, parasite or virus in culture; assay type: functional; details: Mycobacterium tuberculosis
[20] = target: T3, Mannose-6-phosphate isomerase (Homo sapiens, UniProt P34949); assay: MPI inhibition at elevated mannose 6-phosphate – biochemical, fluorescence intensity, high mannose 6-phosphate, primary screen (AID 1220)
T3 sequence (P34949 whole entry): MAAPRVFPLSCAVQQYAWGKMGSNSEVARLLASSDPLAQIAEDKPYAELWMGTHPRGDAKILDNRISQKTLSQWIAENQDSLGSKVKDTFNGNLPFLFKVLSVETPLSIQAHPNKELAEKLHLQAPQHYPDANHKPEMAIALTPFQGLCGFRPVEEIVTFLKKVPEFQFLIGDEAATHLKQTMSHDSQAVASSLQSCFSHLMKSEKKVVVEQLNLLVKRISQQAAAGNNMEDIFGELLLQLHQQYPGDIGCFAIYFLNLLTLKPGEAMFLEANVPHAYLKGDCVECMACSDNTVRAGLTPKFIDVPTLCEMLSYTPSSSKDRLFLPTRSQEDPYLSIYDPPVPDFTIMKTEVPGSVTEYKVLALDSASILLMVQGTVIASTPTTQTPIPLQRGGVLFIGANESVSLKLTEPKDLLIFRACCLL

[21] = system: H9c2; assay: cells; assay type: functional, cell-based; details: Rattus norvegicus, H9c2, Myocardium;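 note: confirmatory concentration-response retest of ultra-high-throughput screening hits for modulation of myocardial damage; cell death induced by hydrogen peroxide oxidative stress; compound pretreatment for 60 min then peroxide exposure for 2 h; potency is for protecting the cells against peroxide damage rather than for killing them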
[22] = target: T4, Fatty acid synthase (Homo sapiens, UniProt P49327); assay: inhibition of human FAS-TE enzyme activity – biochemical, endpoint fluorescence intensity, uHTS hits, dose response (AID 624327); assay type: functional;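 note: fluorescence from hydrolysis of an O-methyl fluorescein acyl ester substrate by the enzyme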
[23] = target: T4, Fatty acid synthase; assay: inhibition of human FAS-TE enzyme activity – biochemical, kinetic fluorescence intensity, dose response (AID 624326); assay type: functional;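 note: rate of fluorescence rise from hydrolysis of a fluorogenic O-methyl fluorescein ester substrate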
[24] = Luminescence Cell-Based Dose Retest to Confirm Inhibitors of Cancer Stem Cells. [Related pubchem assays (depositor defined):AID2717, AID2721]; assay type: functional; details: Homo sapiens
[25] = viability of uninfected HEp-2 cells – cell-based, HTS, cytotoxicity control for RSV inhibitor project, dose response (AID 2410); assay type: functional; details: human respiratory syncytial virus
[26] = viability of PTEN-deleted HCT116 cells – cell-based, HCT116 PTEN knockout, dose response (AID 1047); assay type: functional;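 note: HCT116 colon tumor cells with PTEN knocked out; cells exposed to compound for 60 hours before readout; potency for loss of cell viability measured by luminescence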
[27] = viability of HCT116 lacking mutant beta-catenin – cell-based, human colon tumor, dose response (AID 1045); assay type: functional;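 note: HCT116 colon tumor cells with beta catenin knocked out; cells exposed to compound for 60 hours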

Sequence of Voltage-dependent T-type calcium channel subunit alpha-1H (O95180 whole entry): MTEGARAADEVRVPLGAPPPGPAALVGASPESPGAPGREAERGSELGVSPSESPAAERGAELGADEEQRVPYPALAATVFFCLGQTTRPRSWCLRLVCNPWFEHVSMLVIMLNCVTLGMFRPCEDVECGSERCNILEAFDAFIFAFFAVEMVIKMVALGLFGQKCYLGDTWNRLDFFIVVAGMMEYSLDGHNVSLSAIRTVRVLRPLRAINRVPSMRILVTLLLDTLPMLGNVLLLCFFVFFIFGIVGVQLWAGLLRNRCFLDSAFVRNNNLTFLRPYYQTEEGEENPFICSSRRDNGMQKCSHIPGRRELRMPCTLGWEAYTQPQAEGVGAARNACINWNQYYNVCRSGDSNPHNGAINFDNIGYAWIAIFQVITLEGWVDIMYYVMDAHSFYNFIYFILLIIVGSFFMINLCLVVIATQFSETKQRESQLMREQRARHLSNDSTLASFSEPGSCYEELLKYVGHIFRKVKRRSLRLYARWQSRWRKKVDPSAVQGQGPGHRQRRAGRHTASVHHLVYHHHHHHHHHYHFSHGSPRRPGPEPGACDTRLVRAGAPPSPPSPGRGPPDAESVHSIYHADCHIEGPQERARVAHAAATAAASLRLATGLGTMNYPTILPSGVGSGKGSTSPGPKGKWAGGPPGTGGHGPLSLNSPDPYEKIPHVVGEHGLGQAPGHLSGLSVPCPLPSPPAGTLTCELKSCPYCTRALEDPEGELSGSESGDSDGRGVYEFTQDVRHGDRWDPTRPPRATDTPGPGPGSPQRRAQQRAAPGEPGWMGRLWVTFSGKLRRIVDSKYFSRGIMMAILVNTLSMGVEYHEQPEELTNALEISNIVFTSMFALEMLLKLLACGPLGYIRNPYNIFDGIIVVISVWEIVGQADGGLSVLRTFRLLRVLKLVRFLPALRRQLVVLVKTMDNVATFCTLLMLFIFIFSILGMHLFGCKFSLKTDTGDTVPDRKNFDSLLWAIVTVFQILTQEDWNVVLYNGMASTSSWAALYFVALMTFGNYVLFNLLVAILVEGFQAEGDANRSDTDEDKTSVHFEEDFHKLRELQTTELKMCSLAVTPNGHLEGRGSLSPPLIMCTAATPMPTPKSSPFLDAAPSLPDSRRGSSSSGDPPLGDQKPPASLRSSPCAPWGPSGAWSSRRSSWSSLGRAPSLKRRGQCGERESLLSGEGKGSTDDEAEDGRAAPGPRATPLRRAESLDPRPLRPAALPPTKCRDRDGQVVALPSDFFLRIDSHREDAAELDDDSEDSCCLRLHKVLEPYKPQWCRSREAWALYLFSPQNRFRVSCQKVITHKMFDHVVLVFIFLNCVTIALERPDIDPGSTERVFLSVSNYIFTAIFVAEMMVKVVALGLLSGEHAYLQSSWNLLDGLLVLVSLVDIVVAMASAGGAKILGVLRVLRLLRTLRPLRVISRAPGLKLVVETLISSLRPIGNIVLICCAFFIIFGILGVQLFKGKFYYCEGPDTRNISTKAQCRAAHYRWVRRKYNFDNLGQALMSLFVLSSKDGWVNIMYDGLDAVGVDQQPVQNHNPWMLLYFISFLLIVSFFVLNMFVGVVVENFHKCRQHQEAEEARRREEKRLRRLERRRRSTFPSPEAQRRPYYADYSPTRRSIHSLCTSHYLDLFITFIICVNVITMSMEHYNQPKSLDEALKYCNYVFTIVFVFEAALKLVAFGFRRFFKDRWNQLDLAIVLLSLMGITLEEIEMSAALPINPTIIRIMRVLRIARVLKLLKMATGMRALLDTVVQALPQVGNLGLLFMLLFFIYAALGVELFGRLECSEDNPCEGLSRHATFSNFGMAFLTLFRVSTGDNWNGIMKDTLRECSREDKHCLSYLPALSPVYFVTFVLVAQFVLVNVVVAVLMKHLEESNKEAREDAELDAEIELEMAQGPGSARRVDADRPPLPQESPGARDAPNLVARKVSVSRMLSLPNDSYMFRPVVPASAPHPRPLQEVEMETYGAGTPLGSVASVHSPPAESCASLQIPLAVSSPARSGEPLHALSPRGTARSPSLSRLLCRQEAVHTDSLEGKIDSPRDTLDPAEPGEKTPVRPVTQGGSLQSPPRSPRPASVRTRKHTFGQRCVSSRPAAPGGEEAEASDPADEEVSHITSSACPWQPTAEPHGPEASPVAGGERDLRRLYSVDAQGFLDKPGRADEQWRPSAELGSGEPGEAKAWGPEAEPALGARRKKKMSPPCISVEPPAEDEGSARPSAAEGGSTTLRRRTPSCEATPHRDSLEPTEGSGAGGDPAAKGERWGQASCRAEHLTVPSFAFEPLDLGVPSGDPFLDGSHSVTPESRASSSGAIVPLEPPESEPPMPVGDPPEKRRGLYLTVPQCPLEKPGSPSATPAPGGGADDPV
Sequence of Luciferin 4-monooxygenase (P08659 whole entry): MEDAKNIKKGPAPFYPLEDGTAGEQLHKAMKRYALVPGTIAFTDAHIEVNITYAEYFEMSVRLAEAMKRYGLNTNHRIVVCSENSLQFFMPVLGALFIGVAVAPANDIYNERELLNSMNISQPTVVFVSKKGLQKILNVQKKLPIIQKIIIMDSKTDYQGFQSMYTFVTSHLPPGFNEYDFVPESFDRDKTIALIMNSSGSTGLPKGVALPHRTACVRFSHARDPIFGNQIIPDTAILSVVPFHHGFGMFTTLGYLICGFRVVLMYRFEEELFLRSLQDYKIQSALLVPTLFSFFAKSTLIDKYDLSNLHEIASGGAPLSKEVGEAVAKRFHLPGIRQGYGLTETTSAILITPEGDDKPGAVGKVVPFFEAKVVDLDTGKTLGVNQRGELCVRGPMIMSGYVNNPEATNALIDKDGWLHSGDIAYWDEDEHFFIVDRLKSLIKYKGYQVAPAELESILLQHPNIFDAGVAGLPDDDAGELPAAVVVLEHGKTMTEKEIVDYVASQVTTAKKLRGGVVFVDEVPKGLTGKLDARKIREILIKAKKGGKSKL
Sequence of Cytochrome P450 2D6 (P10635 whole entry): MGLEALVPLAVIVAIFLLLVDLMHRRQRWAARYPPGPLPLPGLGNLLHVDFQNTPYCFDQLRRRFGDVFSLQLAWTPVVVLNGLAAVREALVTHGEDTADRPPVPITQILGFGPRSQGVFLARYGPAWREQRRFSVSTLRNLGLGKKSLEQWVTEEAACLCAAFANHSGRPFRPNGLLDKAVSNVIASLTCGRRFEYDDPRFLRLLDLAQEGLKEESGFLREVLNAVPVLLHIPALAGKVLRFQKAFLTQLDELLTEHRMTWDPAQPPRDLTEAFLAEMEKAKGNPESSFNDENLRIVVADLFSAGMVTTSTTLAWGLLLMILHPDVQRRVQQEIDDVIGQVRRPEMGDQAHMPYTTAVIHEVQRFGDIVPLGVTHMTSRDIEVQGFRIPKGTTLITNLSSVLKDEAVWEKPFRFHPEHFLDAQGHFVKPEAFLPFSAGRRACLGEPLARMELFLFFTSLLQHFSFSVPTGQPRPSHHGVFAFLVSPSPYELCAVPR
Sequence of Paired box protein Pax-8 (Q06710 whole entry): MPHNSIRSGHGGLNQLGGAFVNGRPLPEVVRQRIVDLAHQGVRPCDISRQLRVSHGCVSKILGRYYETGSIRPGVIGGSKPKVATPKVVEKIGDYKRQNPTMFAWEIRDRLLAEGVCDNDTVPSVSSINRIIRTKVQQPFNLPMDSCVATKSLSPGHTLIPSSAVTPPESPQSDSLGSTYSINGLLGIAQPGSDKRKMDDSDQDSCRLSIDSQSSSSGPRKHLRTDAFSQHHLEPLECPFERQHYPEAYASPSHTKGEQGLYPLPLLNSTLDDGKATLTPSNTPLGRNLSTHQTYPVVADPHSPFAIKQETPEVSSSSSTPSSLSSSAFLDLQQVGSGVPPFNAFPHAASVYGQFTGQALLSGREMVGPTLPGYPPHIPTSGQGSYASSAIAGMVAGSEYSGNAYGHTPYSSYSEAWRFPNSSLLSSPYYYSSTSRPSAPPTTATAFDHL

OC[C@H]1O[C@@H](n2cnc3c(NCCc4ccccc4)ncnc32)[C@H](O)[C@@H]1O
EC50 [1]: 15.2 µM (inconclusive)
EC50 [2]: 35.4 µM (active)
EC50 [3]: > 112 µM (not active)
EC50 [4]: 0.893 µM (active)
EC50 [5]: > 150 µM (not active)
EC50 [6]: 18.9 µM (active)

O=C(NCCN1C(=O)S/C(=C\c2ccc(OC(F)F)cc2)C1=O)c1cnccn1
EC50 [7]: > 120 µM (not active)
EC50 [8]: 26.3 µM (active)
EC50 [9]: > 120 µM (not active)
AC50 [10]: 15.5 µM (active)

COc1cccc(N(C(=O)Cn2nnc(-c3ccc(C)cc3)n2)C(C(=O)NC(C)(C)C)c2c[nH]c3ccccc23)c1 (configuration not stated)
EC50 [11]: 8.67 µM (active)
AC50 [12]: 20 µM (inconclusive)

CCOc1ccccc1CNC(=O)C1CCN(c2nnc(C)c3c(C)n(-c4ccc(C)cc4)nc23)CC1
EC50 [7]: 8.11 µM (active)
EC50 [8]: 12.6 µM (active)
EC50 [9]: 9.02 µM (active)
EC50 [13]: 1.45 µM (active)
EC50 [14]: 9.4 µM (active)

Cc1ccc(-c2csc3ncnc(SCc4ccc(C(=O)O)cc4)c23)cc1
IC50 [15]: 44.6 µM (active)

COc1ccc(CNc2nc3ccccc3n2Cc2ccccc2)cc1OC
EC50 [11]: 7.3 µM (active)
AC50 [16]: 22.4 µM (inconclusive)

CC1(C)CC(=O)c2c(oc3ccc(NS(=O)(=O)c4ccc(C(=O)O)cc4)cc23)C1
IC50 [15]: 26 µM (active)

Cc1ccc(NCc2ccc(O)c3ncccc23)cc1C
EC50 [17]: > 160 µM (inconclusive)
EC50 [18]: > 38 µM (not active)
CC50 [19]: 33.9 µM (active)
IC50 [20]: > 50 µM (not active)
IC50 [21]: > 79 µM (inactive)

CS(=O)(=O)N1CCc2cc(-c3csc(NC(=O)Cc4ccccc4)n3)ccc21
EC50 [7]: > 120 µM (not active)
EC50 [8]: 20.9 µM (active)
EC50 [9]: > 120 µM (not active)
EC50 [13]: 1.08 µM (active)
EC50 [14]: > 60 µM (not active)
IC50 [22]: 8.79 µM (active)
IC50 [23]: 5.12 µM (active)

Cc1ccccc1C(=O)NC1CCN(C(=O)N2CCOCC2)CC1
EC50 [3]: > 112 µM (not active)
EC50 [4]: > 112 µM (not active)

COCCNc1nc(N)c([N+](=O)[O-])c(NC2CCCCC2)n1
EC50 [7]: 16.2 µM (active)
EC50 [8]: > 120 µM (not active)
EC50 [9]: 77.7 µM (active)

Cc1cc(C)c(NC(=O)C(C)c2cccc(C(=O)c3ccccc3)c2)c(C)c1 (configuration not stated)
EC50 [11]: 3.26 µM (active)

COc1ccc(-c2nc(C[S+]([O-])CC(=O)NC3CCCCC3C)c(C)o2)cc1 (configuration not stated)
EC50 [3]: > 112 µM (not active)
EC50 [4]: > 112 µM (not active)

Cc1cc(N2CCN(c3ccc(C(F)(F)F)cc3[N+](=O)[O-])CC2)c2ccccc2n1
CC50 [19]: > 40 µM (active)
AC50 [24]: 0.726 µM (active)

CC(C)c1ccc(NC(S)=NC2CCN(Cc3ccccc3)CC2)cc1
CC50 [25]: 20.6 µM (active)
EC50 [3]: > 112 µM (not active)
EC50 [4]: > 112 µM (not active)

CCOC(=O)N1CCN(Cc2cc(=O)oc3cc4c(cc23)CCC4)CC1
EC50 [3]: > 112 µM (not active)
EC50 [4]: > 112 µM (not active)

Cc1snc(S(=O)(=O)/C(C#N)=N/Nc2cccc(C(F)(F)F)c2)c1C#N
EC50 [11]: 7.53 µM (active)

CCO/C(O)=C1\C(C)=NC(SCC(=O)Nc2nc(C)cs2)=C(C#N)C1c1cccs1 (configuration not stated)
CC50 [19]: > 40 µM (active)
EC50 [26]: 14.5 µM (active)
EC50 [27]: 16.6 µM (active)

O=C(N/C(=C/C=C\c1ccccc1)C(=O)N1CCOCC1)c1ccc(Br)cc1
EC50 [7]: > 120 µM (not active)
EC50 [8]: > 120 µM (not active)
EC50 [9]: > 120 µM (not active)
IC50 [22]: 7.92 µM (active)
IC50 [23]: 7.63 µM (active)
